Measurements: PMC2395260 (Genome Biology, 2008)
Where two headings read alike, the source gives them in different places.

Legend:
[1] = test system: HCV subgenomic replicon (genotype 1b) harboring the V36G mutant in Huh-7.5 cells; test: Two-day HCV replicon assay, V36G mutant; type: cell-based, hepatitis C virus genotype 1b; details: for IC50: Hepatitis C virus, Huh7.5, 48 h, read-out: IC50 (HCV RNA level in replicon cells reduced by 50%); for viral suppression in V36G mutant replicon assay in comparison to wild-type replicon assay: V36G versus wild-type replicon, genotype 1b, 48 h
Procedure: Only the SCH 503034 inhibitor is lacking the cyclopropyl group (Figure 1). We used a wild-type HCV replicon assay (genotype 1b) and an assay harboring the V36G mutant for in vitro testing. Detailed information on experimental procedures is given in Materials and methods.
SCH 503034 was synthesized by Schering-Plough Corporation (Kenilworth, NJ, USA), dissolved in dimethyl sulfoxide as a 19 mM solution. Both compounds were stored at 4°C.
The plasmid pFKI389neo/NS3-3'/ET contains HCV subgenomic replicon sequences derived from HCV genotype 1b and an upstream T7 promoter for in vitro RNA synthesis. The point mutation was generated with the QuikChange II XL Site-Directed Mutagenesis Kit (Stratagene, La Jolla, CA, USA). The plasmid was linearized with ScaI and purified by phenol chloroform extraction. The linearized and purified plasmid was transcribed by using a T7 RNA polymerase (Promega, Madison, WI, USA) according to the manufacturer's instructions. All of the plasmids and RNAs were checked for purity and integrity by standard procedures.
Huh-7.5 cells were cultured in Dulbecco's modified Eagle's medium (DMEM; Invitrogen, Carlsbad, CA, USA) containing 10% fetal bovine serum (FBS; PAA Laboratories GmbH, Pasching, Germany) and 2 mM L-glutamine. The cells were transfected with an in vitro-transcribed subgenomic HCV replicon RNA. The wild-type sequence was identical to that of the pFKI389neo/NS3-3'/ET replicon. Stable cells containing the self-replicating HCV replicon were selected and maintained in the presence of 750 μg of G418 (Invitrogen) per ml and were used for HCV replicon assays.
HCV replicon cells were plated in a 6-well plate at a density of 2 × 10^5 cells per well in DMEM with 10% FBS. On the following day (24 h later), the culture medium was replaced with DMEM containing either no compound as a control or compounds serially diluted in the presence of 10% FBS and 750 μg/ml G418. After the cells were incubated with the compounds for 48 h, the intracellular RNA was extracted with an RNeasy kit (Qiagen, Valencia, CA, USA). The level of HCV RNA was determined by a real-time quantitative reverse transcription-PCR (RT-PCR) assay (Taqman) with a pair of HCV-specific primers (5'-[…]-3' and 5'-[…]-3'), an HCV-specific probe (5'-6FAM-[…] XT-PH-3), and an ABI Prism 7000 sequence detection system (Applied Biosystems, Foster City, CA, USA).

[2] = test system: NS3-4A protease A156I/T/V mutants; details: range over A156I/T/V mutants; cited from earlier work
HCV genotype 1 = details: phase 1b clinical trial, after treatment duration of 24 hours; cited from earlier work
[3] = test system: NS3-4A protease V36A/G/L/M mutants; details: cited from earlier work
[4] = test system: NS3-4A protease T54S mutant; details: cited from earlier work
[5] = test system: NS3-4A protease R155G/I/K/L/M/S/T mutants; details: cited from earlier work
[6] = test system: NS3-4A protease A156S mutant; details: cited from earlier work
[7] = test system: wild-type NS3-4A protease, HCV genotype 1a (HCV-H); details: HCV genotype 1a reference strain HCV-H; cited from earlier work
[8] = test system: NS3-4A protease T54A mutant; details: cited from earlier work

Structure (SMILES)	IC50 [1] [nM]	viral suppression in V36G mutant replicon assay in comparison to wild-type replicon assay [1]	IC50 [2] [nM]	HCV RNA decline (HCV genotype 1)	IC50 ([3]; V36A/G/L/M mutants, read-out: IC50 mean) [nM]	IC50 ([3]; range over V36A/G/L/M mutants, read-out: IC50 range) [nM]	IC50 [4] [nM]	IC50 ([5]; R155G/I/K/L/M/S/T mutants, read-out: IC50 mean) [nM]	IC50 ([5]; range over R155G/I/K/L/M/S/T mutants, read-out: IC50 range) [nM]	IC50 [6] [nM]	IC50 [7] [nM]	IC50 [8] [nM]
CC(C)(C)NC(=O)N[C@H](C(=O)N1C[C@H]2[C@@H]([C@H]1C(=O)NC(CC1CCC1)C(=O)C(N)=O)C2(C)C)C(C)(C)C (some centres unmarked) [SCH 503034, boceprevir]	< 5000	nearly equally effective	–	–	–	–	–	–	–	–	–	–
CCC[C@H](NC(=O)[C@@H]1[C@H]2CCC[C@H]2CN1C(=O)[C@@H](NC(=O)[C@@H](NC(=O)c1cnccn1)C1CCCCC1)C(C)(C)C)C(=O)C(=O)NC1CC1 [VX-950, telaprevir]	~5000	considerably delayed	12500 to 50000	above 3 log	226	110 to 444	120	538	275 to 1050	1400	70	749
